Data: PubChem BioAssay AID504479 (NMMLSC, 2011)
Calls of active or inactive are those of the source.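 How the source made its calls: active means GFP ratio vs DMSO below 0.65 in a strain, using the primary screen cutoff set for that strain's protein target; inactive means the rest.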

Tests used:
Test in all cases: TORC1 pathway position of GFP reporter effects – S. cerevisiae, TORC1 bypass vs wild-type strains, mechanism study for yeast TOR pathway modulator project (AID 504479)
Details in all cases: fluorescence ratio vs DMSO, at 10 µM
BY4741 = test system: BY4741
YBR084C-A = test system: YBR084C-A
YCL025C = test system: YCL025C
YCR005C = test system: YCR005C
YKL103C = test system: YKL103C
YNL142W = test system: YNL142W
[1] = RPL19A-GFP in TORC1 bypass strain, stronger effect = lower value
[2] = AGP1-GFP in TORC1 bypass strain, stronger effect = higher value
[3] = CIT2-GFP in TORC1 bypass strain, stronger effect = higher value
[4] = LAP4-GFP in TORC1 bypass strain, stronger effect = higher value
[5] = MEP2-GFP in TORC1 bypass strain, stronger effect = higher value

Row | SMILES | GFP ratio vs DMSO (BY4741) | GFP ratio vs DMSO (YBR084C-A; [1]) | GFP ratio vs DMSO (YBR084C-A) | GFP ratio vs DMSO (YCL025C; [2]) | GFP ratio vs DMSO (YCL025C) | GFP ratio vs DMSO (YCR005C; [3]) | GFP ratio vs DMSO (YCR005C) | GFP ratio vs DMSO (YKL103C; [4]) | GFP ratio vs DMSO (YKL103C) | GFP ratio vs DMSO (YNL142W; [5]) | GFP ratio vs DMSO (YNL142W)
1 | COc1ccc([N+](=O)[O-])c(S(=O)(=O)c2ccccc2)n1 | 0.896 (inactive) | 0.924 | 0.967 (inactive) | 0.971 | 1.14 (inactive) | 0.862 | 0.792 (inactive) | 1.33 | 1.97 | 0.877 | 1.03 (inactive)
2 | Cc1ccc(C(=O)NNC(=S)NC(=O)COc2ccccc2)cc1 | 1.29 (inactive) | 1.22 | 1.27 (inactive) | 0.914 | 1.11 (inactive) | 0.861 | 0.988 (inactive) | 1.45 | 2.49 | 1.25 | 1.22 (inactive)
3 | O=C(NC(=S)NNC(=O)c1cnccn1)c1ccc(F)cc1 | 0.925 (inactive) | 0.827 | 0.877 (inactive) | 0.606 | 0.808 (inactive) | 0.691 | 0.716 (inactive) | 1.35 | 1.64 | 0.971 | 1.07 (inactive)
4 | CC1=NN(c2ccccc2)C(=O)C1C(c1ccccc1[N+](=O)[O-])C(C#N)C#N (stereo not given) | 0.941 (inactive) | 1.04 | 1.09 (inactive) | 0.682 | 0.947 (inactive) | 1.15 | 1.13 (inactive) | 1.44 | 2.26 | 0.948 | 1.03 (inactive)
5 | Cc1ccc(S(=O)(=O)c2ncccc2[N+](=O)[O-])cc1 | 1.09 (inactive) | 0.99 | 1.04 (inactive) | 0.888 | 0.84 (inactive) | 0.847 | 0.688 (inactive) | 1.5 | 1.82 | 1.01 | 0.788 (inactive)
6 | COc1ccc(/C=C/C(=O)NC(=S)NNC(=O)c2cnccn2)cc1 | 0.962 (inactive) | 0.981 | 0.94 (inactive) | 0.694 | 0.807 (inactive) | 0.87 | 1.03 (inactive) | 1.18 | 1.51 | 1.03 | 1.14 (inactive)
7 | O=[N+]([O-])c1cc(Cl)c2cccnc2c1O | 0.755 (inactive) | 0.937 | 1.04 (inactive) | 0.738 | 0.999 (inactive) | 0.67 | 0.937 (inactive) | 1.17 | 1.52 | 0.964 | 0.937 (inactive)
8 | CC(C)(C)C(=O)C(Cl)C(=O)Nc1ccccc1 (stereo not given) | 0.941 (inactive) | 0.997 | 0.885 (inactive) | 0.833 | 1.2 (inactive) | 1.58 | 1.65 | 1.5 | 2.76 | 0.969 | 1.24 (inactive)
9 | CC(Oc1ccc(Cl)cc1)C(=O)NNC(=S)NC(=O)c1ccco1 (stereo not given) | 1.44 (inactive) | 1.25 | 1.15 (inactive) | 0.847 | 0.99 (inactive) | 0.788 | 0.971 (inactive) | 1.7 | 2.67 | 1.2 | 1.48 (inactive)
10 | O=[N+]([O-])c1ccc(O)c2ncccc12 | 1.4 (inactive) | 1.18 | 1.23 (inactive) | 0.99 | 1.14 (inactive) | 0.748 | 1.27 (inactive) | 1.88 | 3.01 | 1.06 | 1.21 (inactive)
